Assay results from PubChem BioAssay (NCI).
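Five concentrations, 48 hours, 96-well plates. Definition used: TGI = concentration required for complete inhibition of growth.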

Key:
Assay in all cases: NCI anticancer screen, dose series, 48 h
A549 NSCLC = tested on: A549 NSCLC
CAKI-1 renal = tested on: CAKI-1 renal
COLO 205 colon = tested on: COLO 205 colon
HCT-116 colon = tested on: HCT-116 colon
HCT-15 colon = tested on: HCT-15 colon
HOP-62 NSCLC = tested on: HOP-62 NSCLC
HOP-92 NSCLC = tested on: HOP-92 NSCLC
HT29 colon = tested on: HT29 colon
KM12 colon = tested on: KM12 colon
NCI-H460 lung = tested on: NCI-H460 lung
OVCAR-3 ovarian = tested on: OVCAR-3 ovarian
OVCAR-5 ovarian = tested on: OVCAR-5 ovarian
SF-295 CNS = tested on: SF-295 CNS
SNB-75 CNS = tested on: SNB-75 CNS
UACC-257 melanoma = tested on: UACC-257 melanoma
UO-31 renal = tested on: UO-31 renal
DU-145 prostate = tested on: DU-145 prostate
HS 578T breast = tested on: HS 578T breast
MCF7 breast = tested on: MCF7 breast
PC-3 prostate = tested on: PC-3 prostate

SMILES | TGI (A549 NSCLC) [µM] | TGI (CAKI-1 renal) [µM] | TGI (COLO 205 colon) [µM] | TGI (HCT-116 colon) [µM] | TGI (HCT-15 colon) [µM] | TGI (HOP-62 NSCLC) [µM] | TGI (HOP-92 NSCLC) [µM] | TGI (HT29 colon) [µM] | TGI (KM12 colon) [µM] | TGI (NCI-H460 lung) [µM] | TGI (OVCAR-3 ovarian) [µM] | TGI (OVCAR-5 ovarian) [µM] | TGI (SF-295 CNS) [µM] | TGI (SNB-75 CNS) [µM] | TGI (UACC-257 melanoma) [µM] | TGI (UO-31 renal) [µM] | TGI (DU-145 prostate) [µM] | TGI (HS 578T breast) [µM] | TGI (MCF7 breast) [µM] | TGI (PC-3 prostate) [µM]
CC1(C)CCC[C@@]2(C)C1CCC1(C)C(CCc3ccoc3)/C(=C/OS(=O)(=O)O)CCC12 (stereo partly specified) (tested in a mixture with another compound) | > 100 | > 100 | > 100 | 38.9 | > 100 | > 100 | 63.2 | > 100 | > 100 | > 100 | > 100 | > 100 | > 100 | > 100 | > 100 | > 100 |  |  |  | 
O=C(/C=C/c1ccc(OCCCOc2ccc(/C=C/C(=O)c3ccccc3)cc2)cc1)c1ccccc1 | > 100 |  | > 100 | > 100 | > 100 | > 100 |  | > 100 |  | > 100 | > 100 |  | > 100 | > 100 | > 100 | > 100 |  |  |  | 
C=C(CN(C)C)C(=O)c1ccccc1C | > 100 | 62.6 | 31.9 | > 57.1 | > 63.1 | > 100 | 33.3 | > 100 | > 100 | > 100 | > 58.7 | > 100 | > 100 | > 100 | > 100 | > 69.2 | > 100 |  |  | 
CCOC(=O)c1c2c3c(cccc3[nH]c1=O)Sc1ncccc1-2 | 85.3 | 70.7 | > 100 | > 100 | > 100 | > 100 |  | 94.9 |  | > 100 | > 100 | 96.6 | 95.3 | > 100 | > 100 | 81.5 | > 100 | > 100 | > 100 | 74.6
OCC1OC(n2nc(-c3ccccc3)nc2-c2cnccn2)C(O)C(O)C1O (stereo unspecified) | > 100 |  | > 100 | > 100 | > 100 | > 100 | > 100 | > 100 | > 100 | > 100 | > 100 | > 100 | > 100 | > 100 | > 100 | > 100 | > 100 |  | > 100 | > 100
NCC(=O)NC1(c2cc3ccccc3s2)CCCCC1 | > 100 | > 100 | 32.5 | > 100 | > 100 | > 100 | 78.1 | 54.8 | > 100 | > 100 | > 100 | > 100 | > 100 | 83.7 | 32.1 | > 100 | > 100 | 99.5 | > 100 | 
CC(=O)[C@@H]1[C@@H](OC(=O)CCC(C)COC2OC(CO)C(O)C(O)C2O)C[C@H]2[C@@H]3CC=C4C[C@@H](OC5OC(CO)C(OC6OC(C)C(O)C(O)C6O)C(O)C5OC5OC(C)C(O)C(O)C5O)CC[C@]4(C)[C@H]3CC[C@]12C (stereo partly specified) | > 100 | > 100 | > 100 | > 100 |  | > 100 |  |  | > 100 | > 100 | > 100 | > 100 | > 100 | > 100 | > 100 | > 100 | > 100 |  | > 100 | > 100
